Data published in patent publication US20240398781A1, “SPIROCYCLIC CYCLIC MODULATORS OF CHOLESTEROL BIOSYNTHESIS AND THEIR USE FOR PROMOTING REMYELINATION” (GENENTECH, INC., priority 2021, published 2024).
pEC50, pKi: −log10 of the molar value.

How the values were obtained:
[1] = system: EBP (zymostenol accumulation in EpiSC-derived OPCs); experiment: GC/MS-based sterol profiling, zymostenol accumulation in OPCs; format: cell-based, mouse; details: Mus musculus, 24 h, EpiSC-derived OPCs, 24 hr treatment, 8 doses from 0.15 nM to 333 nM; read-out: Zymostenol GCMS EC50
Summary of the method: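 EpiSC-derived OPCs (100,000/well) were treated 24 h in N2B27 without growth factors. Sterols were TMS-derivatized and analysed by GC/MS full-scan EI, quantified against cholesterol-d7. Zymostenol was normalized to the level after 24 h with 100 nM positive control reference.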

[2] = biological target: human emopamil binding protein and human 7-dehydrocholesterol reductase co-expressing cells (hEBP-DHCR7 membrane) (Homo sapiens (Human), UniProt Q15125); experiment: Radioligand filter binding assay on hEBP-DHCR7 membrane; details: [3H]-(S)-6-(2-Methyl-3-(6-(trifluoromethyl)pyridin-3-yl)propyl)-2-thia-6-azaspiro[3.4]octane 2,2-dioxide radioligand, HEK293 membrane co-expressing hEBP and hDHCR7
Sequence of human emopamil binding protein and human 7-dehydrocholesterol reductase co-expressing cells (hEBP-DHCR7 membrane) (Q15125 whole entry): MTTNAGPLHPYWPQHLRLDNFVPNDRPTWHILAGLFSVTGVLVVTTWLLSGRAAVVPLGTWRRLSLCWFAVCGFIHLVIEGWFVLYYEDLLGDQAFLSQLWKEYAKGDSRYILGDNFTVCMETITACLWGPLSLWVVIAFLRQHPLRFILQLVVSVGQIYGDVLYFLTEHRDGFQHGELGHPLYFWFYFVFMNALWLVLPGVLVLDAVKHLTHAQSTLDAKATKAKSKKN
Summary of the method: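 HEK293 cells transiently co-expressing human EBP and DHCR7 supplied whole-cell membranes (10 μg/well), incubated 3 h at 22 °C with [3H]-labelled spiro-octane dioxide ligand (added at 25 nM) and compound (0.06-5000 nM final, 8 doses, n=2). Bound ligand was collected on PEI-treated GF/B filters and counted by scintillation. IC50 was Hill-fitted from % inhibition and reported as Ki.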

Compound	pEC50 [1]	pKi [2]
CC(C)n1nc(N2CC(F)(F)C2)cc1[C@H]1CC[C@H](N2CCC3(C2)CS(=O)(=O)C3)CC1 [Compound 35, 6-((1r,4r)-4-(3-(3,3-Difluoroazetidin-1-yl)-1-isopropyl-1H-pyrazol-5-yl)cyclohexyl)-2-thia-6-azaspiro[3.4]octane 2,2-dioxide]	7.35	6.55
O=S1(=O)CC2(CCN([C@@H]3CO[C@@H](c4ccc(C(F)(F)F)cc4)C3)C2)C1 (stereo in doubt) [19B*, 6-((3S,5R)-5-(4-(trifluoromethyl)phenyl)tetrahydrofuran-3-yl)-2-thia-6-azaspiro[3.4]octane 2,2-dioxide]	8.00	7.70
CC(C)n1nc(-c2ccc(C(F)(F)F)nc2)nc1[C@H]1CC[C@@H](N2CCC3(C2)CS(=O)(=O)C3)C1 (single isomer, unassigned) [17D*]	8.46	7.19
O=S1(=O)CC2(CCN([C@H]3CC[C@H](c4cc(C(F)(F)F)n(C5CCC5)n4)CC3)C2)C1 [Compound 24, 6-((1r,4r)-4-(1-cyclobutyl-5-(trifluoromethyl)-1H-pyrazol-3-yl)cyclohexyl)-2-thia-6-azaspiro[3.4]octane 2,2-dioxide]	8.52	7.96
CCn1nc([C@H]2CC[C@H](N3CCC4(C3)CS(=O)(=O)C4)CC2)cc1C(F)(F)F [Compound 16, 6-((1r,4r)-4-(1-Ethyl-5-(trifluoromethyl)-1H-pyrazol-3-yl)cyclohexyl)-2-thia-6-azaspiro[3.4]octane 2,2-dioxide]	7.92	7.28

Now from value to compound:

pEC50 [1]	pKi [2]	Compound
7.30	7.34	Cc1cc(C(F)(F)F)ncc1[C@H]1CC[C@H](N2CCC3(C2)CS(=O)(=O)C3)CC1 [Compound 21B, 6-((1r,4r)-4-(4-Methyl-6-(trifluoromethyl)pyridin-3-yl)cyclohexyl)-2-thia-6-azaspiro[3.4]octane 2,2-dioxide]
7.80	7.56	O=S1(=O)CC2(CCN([C@H]3CC[C@@H](c4ccc(C(F)(F)F)cc4)CC3)C2)C1 [Compound 3B, 6-((1s,4s)-4-(4-(trifluoromethyl)phenyl)cyclohexyl)-2-thia-6-azaspiro[3.4]octane 2,2-dioxide]
